Test results taken from patent US20230338454A1, “FORSYTHIA SUSPENSA COMPONENT AND OPTIONAL PANAX GINSENG COMPONENT AND THE APPLICATION” (priority 2020, published 2023).
Where two headings read alike, the source gives them in different places. Marks after values point to notes of the source that are not given here.

How the values were obtained:
HCMV AD169 strain = assay: Inhibitory effect on HCMV in vitro (MEC, therapeutic index); assay type: cell-based, human cytomegalovirus; settings: HCMV AD169, 100 times TCD50, 10 days of culture
Description: Human embryonic lung fibroblast cell strain (purchased from Sino Best Biological Technology Co., Ltd.). The cells were cultured and subcultured according to the conventional method.
HCMV AD169 strain was purchased from American Type Culture Collection (ATCC).
Cells were inoculated in a 96-well plate, allowed to grow into monolayers, and inoculated with a virus challenge of 100 times TCD50. Starting from TD0, each drug was diluted stepwise according to 10-fold gradient to prepare 5 concentrations, with 4 wells set for each concentration. In addition, 4 wells of normal cell control and 4 wells of virus control were set.

[1] = test system: Human embryonic lung fibroblast cell strain
Influenza virus [2] = assay: Effect of drugs on viral cytopathic effect, effective antiviral rate (ER%); assay type: cell-based
Parainfluenza virus [3] = assay: as above; assay type: cell-based; settings: Vero cells, 100TCID50, drug at maximum non-toxic concentration, 72 h, MTT
[4] = test system: Coxsackievirus A16 (CoxA16); assay: as above; assay type: cell-based; settings: Vero cells, 100TCID50, drug at maximum non-toxic concentration, 72 h, MTT
[5] = test system: respiratory syncytial virus (RSV); assay: as above; assay type: cell-based; settings: Vero cells, 100TCID50, drug at maximum non-toxic concentration, 72 h, MTT
[6] = test system: Herpes simplex virus type 1 (HSV-1); assay: as above; assay type: cell-based; settings: Vero cells, 100TCID50, drug at maximum non-toxic concentration, 72 h, MTT
Adenovirus (AdV) = assay: as above; assay type: cell-based; settings: Vero cells, 100TCID50, drug at maximum non-toxic concentration, 72 h, MTT
enterovirus 71 (EV71) = assay: as above; assay type: cell-based; settings: Vero cells, 100TCID50, drug at maximum non-toxic concentration, 72 h, MTT
Coxsackievirus B3 (CVB3) = assay: as above; assay type: cell-based; settings: Vero cells, 100TCID50, drug at maximum non-toxic concentration, 72 h, MTT
influenza virus [7] = assay type: in vivo, Kunming mice
parainfluenza virus [8] = assay type: in vivo, Kunming mice; settings: mice infected with parainfluenza virus
influenza virus [9] = assay type: in vivo, Kunming mice; settings: lung suspension, mice infected with influenza virus, 5 days
parainfluenza virus [10] = assay type: in vivo, Kunming mice; settings: […], 5 days
Vero cells = assay: Cytotoxicity test of drugs on Vero cells (MTT); settings: 72 h
[11] = test system: sweat secretion of rat paw; assay: Sweat secretion of rat paw (staining method); assay type: in vivo, Wistar rats; settings: of 10 rats; 35.0 mg/kg subcutaneous
Source text: There are sweat glands on the plantar skin of rats, so the changes in sweat secretion can be observed by the purple reaction between the iodine-starch mixture and the sweat. Five hundred Wistar rats, half male and half female, weighing 120-150 g, were taken in the study. […] The rats were placed in a homemade rat-fixing bag to expose both hind limbs. The dirt on the right paw was gently scrubbed with a cotton swab dipped in absolute ethanol. Except for the pilocarpine solution, which was given by subcutaneous injection, other groups were administered by gavage. One hour after administration (30 min after administration in the pilocarpine group), the sweat secreted from the right paw of rats in each group was gently cleaned with a dry cotton swab before the study and during struggling. The right paw was coated with Wotan-[…] reagent A solution (dissolve 2 g of iodine in 100 mL of absolute ethanol) and then coated with Wotan-[…] reagent B solution (mix 50 g of soluble starch and 100 mL of Ricinus conununis oil well) after reagent A was fully absorbed. […] At the end of the test, a rank-sum test was used to analyze the differences among the groups.

[12] = test system: epithelial cells of plantar sweat glands of rats; assay: Sweat secretion of rat paw (histomorphology observation method); assay type: in vivo, Wistar rats; settings: 30 min after 35.0 mg/kg subcutaneous
Source text: After sweat glands activation in rats, besides the increase of sweat secretion, the morphology of the epithelial cells of the sweat glands changes accordingly. Under the optical microscope, the increase and enlargement of vacuoles in the epithelial cells of the sweat glands are observed. Under an electron microscope, the enlarged vacuoles appear to be due to swelling and rupture of mitochondria, enlargement of fusion and secretory vesicles in the epithelial cells of sweat glands. The secretory activity of sweat glands could be understood by observing the histomorphology of the epithelial cells of plantar sweat glands of rats. Three hundred Wistar rats, half male and half female, weighing 120-160 g. were taken in the study. […] Except for the pilocarpine solution given by subcutaneous injection, other groups were administered by gavage. One hour after the control group was given 0.5% carboxymethyl cellulose, 30 min after the positive drug group was given pilocarpine, and 1 h after the administration of forsythin, ginsenoside Rg3 and the panax ginseng-forsythia suspensa composition, the right hind limb was immediately cut off at the level of the ankle joint. […] Observations were made under an optical microscope for changes in the epithelial cells of the plantar sweat glands of rats in each group, mainly the incidence of vacuoles. The statistical processing was performed by X^2 test, and differences among the groups were compared. The above study was repeated for 3 times.

[13] = test system: fever induced by beer yeast; assay: Fever induced by beer yeast in rats; assay type: in vivo, Wistar rats; settings: 100 mg/kg
[14] = test system: carrageenan-induced paw swelling; assay: Carrageenan-induced paw swelling in rats; assay type: in vivo, Wistar rats; settings: 100 mg/kg, sublingual intravenous injection
Description: Each group was administered by sublingual intravenous injection. Before the study, the normal volume of the right hind limb was measured by the capillary magnification method. To avoid errors, the measurement position should be fixed and performed by one person before and after administration. The average of the two measurements was taken as the normal volume of the right hind limb of the rats prior to administration. […] The inter-group t-test was performed by the difference percentage (swelling rate) of the plantar volume before and after the inflammation induction, and the differences among the groups were compared.

[15] = mice infected with influenza virus, 19.5 mg/kg/day by gavage, 5 days
[16] = 19.5 mg/kg/day by gavage, 5 days

COc1cc(C2OCC3C(c4ccc(OC5OC(C(=O)O)C(O)C(O)C5O)c(OC)c4)OCC23)ccc1O [33-Hydroxy-phillygenin glucuronide, 33-hydroxy phillygenin-8-O-β-D-glucuronide]
Minimum effective concentration MEC (HCMV AD169 strain): 0.3 mg/L | Maximum non-toxic concentration TD0 [1]: 30 mg/L

CCOC(=O)C1=C[C@@H](OC(CC)CC)[C@H](NC(C)=O)[C@@H](N)C1 [Oseltamivir Phosphate, reference compound]
Effective Antiviral Rates (ER%) Influenza virus (Influenza virus [2]; Vero cells, 100TCID50, drug at maximum non-toxic concentration, 72 h, MTT): 81.76** % | Effective Antiviral Rates (ER%) Parainfluenza virus (Parainfluenza virus [3]): 94.52** % | Effective Antiviral Rates (ER%) CoxA16 [4]: 2.95% | Effective Antiviral Rates (ER%) RSV [5]: 37.60% | Effective Antiviral Rates (ER%) HSV-I [6]: 66.56** % | Effective Antiviral Rates (ER%) ADV (Adenovirus (AdV)): 10.31% | Effective Antiviral Rates (ER%) EV71 (enterovirus 71 (EV71)): 51.86% | Effective Antiviral Rates (ER%) CVB3 (Coxsackievirus B3 (CVB3)): 1.64% | Lung index (x̅ ±S) (influenza virus [7]; [15]): 1.178±0.066 | Lung index Inhibitory rate (%) (influenza virus [7]; [15]): 19.84% | Lung index compared with the infection model group, in words (influenza virus [7]; mouse, in vivo): decreased significantly | Lung index (x̅ ±S) (parainfluenza virus [8]; [16]): 1.243±0.054 | Lung index Inhibitory rate (%) (parainfluenza virus [8]; [16]): 21.85% | Lung index compared with the infection model group, in words (parainfluenza virus [8]; P < 0.05 or P < 0.01): decreased significantly | Hemagglutinin titer (InX) (influenza virus [9]; 19.5 mg/kg/day by gavage): 20.50±1.123 | Inhibitory rate (%) of hemagglutination titer (influenza virus [9]; 19.5 mg/kg/day by gavage): 36.73% | Hemagglutinin titer (InX) (parainfluenza virus [10]; 19.5 mg/kg/day by gavage): 22.05±1.055 | Inhibitory rate (%) of hemagglutination titer (parainfluenza virus [10]; 19.5 mg/kg/day by gavage): 33.40% | Half toxic concentration (TC50) (Vero cells): 832 µg/mL | Maximum non-toxic concentration (TC0) (Vero cells): 0.28 g/L

CC[C@@H]1C(=O)OC[C@@H]1Cc1cncn1C [Pilocarpine, reference compound]
Number of animals with sweat spots of each grade at 1 min after application of solution B: grade + [11]: 1 animals | Number of animals with sweat spots of each grade at 1 min after application of solution B: grade ++ [11]: 3 animals | Number of animals with sweat spots of each grade at 1 min after application of solution B: grade +++ [11]: 1 animals | Number of animals with sweat spots of each grade at 1 min after application of solution B: grade +++ (fifth grade column) [11]: 5 animals | Number of animals with sweat spots of each grade at 1 min after application of solution B: grade - [11]: 0 animals | Number of animals with sweat spots of each grade at 5 min after application of solution B: grade + [11]: 1 animals | Number of animals with sweat spots of each grade at 5 min after application of solution B: grade ++ [11]: 2 animals | Number of animals with sweat spots of each grade at 5 min after application of solution B: grade +++ [11]: 1 animals | Number of animals with sweat spots of each grade at 5 min after application of solution B: grade +++ (fifth grade column) [11]: 6 animals | Number of animals with sweat spots of each grade at 5 min after application of solution B: grade - [11]: 0 animals | Number of vacuolar sweat glands (number) [12]: 57 number | Vacuolation rate (%) [12]: 27.40^∗∗∗ %

CC(=O)Nc1ccc(O)cc1 [Paracetamol, reference compound]
Body temperature change (%) (antipyretic percentage), time post-dose 1 h ([13]; 1 h post-dose): -2.07±0.54^∗∗ % | Body temperature, time post-dose 1 h ([13]; 1 h post-dose): 38.66±0.59 °C | Body temperature change (%) (antipyretic percentage), time post-dose 2 h ([13]; 2 h post-dose): -3.27±0.77^∗∗∗ % | Body temperature, time post-dose 2 h ([13]; 2 h post-dose): 38.19±0.59 °C | Body temperature change (%) (antipyretic percentage), time post-dose 3 h ([13]; 3 h post-dose): -3.80±1.43^∗∗∗ % | Body temperature, time post-dose 3 h ([13]; 3 h post-dose): 37.98±0.19 °C | Body temperature change (%) (antipyretic percentage), time post-dose 4 h ([13]; 4 h post-dose): -4.15±1.59^∗∗∗ % | Body temperature, time post-dose 4 h ([13]; 4 h post-dose): 37.84±0.32 °C

Nc1nc(O)c2ncn(COC(CO)CO)c2n1 [Ganciclovir (GCV), Ganciclovir, reference compound]
Minimum effective concentration MEC (HCMV AD169 strain): 10 mg/L | Maximum non-toxic concentration TD0 ([1]; human): 10 mg/L

CC(=O)Oc1ccccc1C(=O)O [Aspinn]
Swelling rate (%) 15 min ([14]; 15 min after inflammation induction): 8.90±6.70^∗ % | Swelling rate (%) 30 min ([14]; 30 min after inflammation induction): 15.6±12.2^∗ % | Swelling rate (%) 60 min ([14]; 60 min after inflammation induction): 20.3±10.9^∗ % | Swelling rate (%) 120 min ([14]; 120 min after inflammation induction): 21.6±12.1^∗∗ % | Swelling rate (%) 180 min ([14]; 180 min after inflammation induction): 26.1±21.1^∗∗ % | Swelling rate (%) 240 min ([14]; 240 min after inflammation induction): 26.1±16.3^∗∗ % | Swelling rate (%) 300 min ([14]; 300 min after inflammation induction): 34.9±14.6^∗ % | Swelling rate (%) 360 min ([14]; 360 min after inflammation induction): 31.9±12.2^∗ %

NC(=O)c1ncn([C@@H]2O[C@H](CO)[C@@H](O)[C@H]2O)n1 [Ribavirin, reference compound]
Effective Antiviral Rates (ER%) Influenza virus (Influenza virus [2]): 57.49** % | Effective Antiviral Rates (ER%) Parainfluenza virus (Parainfluenza virus [3]): 91.56** % | Effective Antiviral Rates (ER%) CoxA16 [4]: 0.70% | Effective Antiviral Rates (ER%) RSV [5]: 50.08* % | Effective Antiviral Rates (ER%) HSV-I [6]: 62.92** % | Effective Antiviral Rates (ER%) ADV (Adenovirus (AdV)): 0.43% | Effective Antiviral Rates (ER%) EV71 (enterovirus 71 (EV71)): 4.25% | Effective Antiviral Rates (ER%) CVB3 (Coxsackievirus B3 (CVB3)): 13.44% | Hemagglutinin titer (InX) (influenza virus [9]; 58.5 mg/kg/day by gavage): 21.91±1.050 | Inhibitory rate (%) of hemagglutination titer (influenza virus [9]; 58.5 mg/kg/day by gavage): 32.39% | Hemagglutinin titer (InX) (parainfluenza virus [10]; 58.5 mg/kg/day by gavage): 23.22±1.091 | Inhibitory rate (%) of hemagglutination titer (parainfluenza virus [10]; 58.5 mg/kg/day by gavage): 29.86%

COc1cc(C2OCC3C(c4ccc5c(c4)OCO5)OCC23)ccc1OC1OC(C(=O)O)C(O)C(O)C1O [33, 34-methylenedioxy phillygenin-8-O-β-D-glucuronide]
Minimum effective concentration MEC (HCMV AD169 strain): 0.4 mg/L | Maximum non-toxic concentration TD0 [1]: 40 mg/L

COc1ccc(C2OCC3C(c4ccc(OC5OC(C(=O)O)C(O)C(O)C5O)c(O)c4)OCC23)cc1OC [9-Hydroxy-phillygenin glucuronide, 9-hydroxy phillygenin-8-O-β-D-glucuronide]
Minimum effective concentration MEC (HCMV AD169 strain): 0.4 mg/L | Maximum non-toxic concentration TD0 [1]: 40 mg/L
